Test results taken from patent publication US20250145589A1, “PYRIDINE DERIVATIVE AND USE THEREOF” (SICHUAN HUIYU PHARMACEUTICAL CO., LTD., priority 2021, published 2025).
Where two headings read alike, the source gives them in different places.

Columns and labels:
[1] = test system: NCI-H358 cells (KRAS G12C mutant); experiment: NCI-H358 cell proliferation inhibition (CellTiter-Glo); format: cell-based; settings: Homo sapiens, NCI-H358, 72 h
Description: The CellTiter-Glo®, assay was used to detect the number of viable cells, in order to evaluate the anti-proliferation efficacy of compounds. […] The compounds were serially diluted 5-fold in DMSO to obtain 8 concentrations, and then further diluted with RPMI-640 (10% FBS) cell culture medium to obtain the working solutions (5′), 20 μL of each working solution was added to the cell culture supernatant in each well, and the plate was further incubated for 3 days at 37° C. with 5% CO2. The plate was then equilibrated with CellTiter-Glo® reagent at room temperature (25° C.) for 10-30 minutes. After aspirating 50 μL of the medium, 50 μL of CellTiter-Glo® reagent was added. The cells were thoroughly mixed with the CellTiter-Glo® reagent using a microplate shaker for 2 minutes, and then incubated at room temperature for 10 minutes. The 96-well plate was placed in a multi-mode microplate reader to record the luminescence values (RLU). The inhibition rate was calculated through the following equation: [formula] Data were analyzed using GraphPad Prism for IC50 values (Note: The negative control refers to the group without inhibitor).

PI3Kα = PI3Kα (Homo sapiens (Human), UniProt P42336); experiment: Inhibition of PI3Kα efficacy assay (ADP-Glo kinase assay); format: biochemical; settings: read-out: PI3Kα inhibitory activity (IC50)
PI3Kα, sequence (P42336 whole entry): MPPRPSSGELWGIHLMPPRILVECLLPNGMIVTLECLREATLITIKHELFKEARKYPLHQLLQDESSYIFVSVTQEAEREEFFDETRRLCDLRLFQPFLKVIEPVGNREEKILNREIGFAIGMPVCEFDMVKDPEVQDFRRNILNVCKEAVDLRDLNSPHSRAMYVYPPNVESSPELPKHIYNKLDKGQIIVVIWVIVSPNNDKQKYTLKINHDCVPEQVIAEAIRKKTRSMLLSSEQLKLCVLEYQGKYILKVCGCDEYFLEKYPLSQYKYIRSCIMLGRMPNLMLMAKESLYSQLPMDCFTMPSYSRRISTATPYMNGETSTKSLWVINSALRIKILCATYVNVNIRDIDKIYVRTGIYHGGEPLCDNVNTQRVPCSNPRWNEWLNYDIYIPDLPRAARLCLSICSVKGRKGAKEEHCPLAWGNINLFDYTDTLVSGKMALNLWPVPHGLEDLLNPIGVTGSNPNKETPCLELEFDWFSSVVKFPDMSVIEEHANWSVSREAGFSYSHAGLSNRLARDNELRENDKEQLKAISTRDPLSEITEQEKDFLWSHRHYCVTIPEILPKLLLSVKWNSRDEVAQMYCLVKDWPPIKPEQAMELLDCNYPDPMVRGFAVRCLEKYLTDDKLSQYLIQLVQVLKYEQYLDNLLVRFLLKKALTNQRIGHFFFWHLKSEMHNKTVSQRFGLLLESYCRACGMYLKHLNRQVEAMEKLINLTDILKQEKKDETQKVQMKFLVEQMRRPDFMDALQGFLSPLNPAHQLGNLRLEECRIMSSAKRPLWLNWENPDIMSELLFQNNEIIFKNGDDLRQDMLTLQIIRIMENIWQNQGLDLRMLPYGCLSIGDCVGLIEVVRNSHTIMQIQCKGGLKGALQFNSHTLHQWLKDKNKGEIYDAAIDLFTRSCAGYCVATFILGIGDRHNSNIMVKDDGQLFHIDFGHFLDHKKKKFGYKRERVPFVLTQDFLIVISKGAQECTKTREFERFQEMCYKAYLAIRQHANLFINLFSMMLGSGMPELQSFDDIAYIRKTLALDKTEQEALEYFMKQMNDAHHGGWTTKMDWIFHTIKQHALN
PI3Kα, sequence (P27986 whole entry partner): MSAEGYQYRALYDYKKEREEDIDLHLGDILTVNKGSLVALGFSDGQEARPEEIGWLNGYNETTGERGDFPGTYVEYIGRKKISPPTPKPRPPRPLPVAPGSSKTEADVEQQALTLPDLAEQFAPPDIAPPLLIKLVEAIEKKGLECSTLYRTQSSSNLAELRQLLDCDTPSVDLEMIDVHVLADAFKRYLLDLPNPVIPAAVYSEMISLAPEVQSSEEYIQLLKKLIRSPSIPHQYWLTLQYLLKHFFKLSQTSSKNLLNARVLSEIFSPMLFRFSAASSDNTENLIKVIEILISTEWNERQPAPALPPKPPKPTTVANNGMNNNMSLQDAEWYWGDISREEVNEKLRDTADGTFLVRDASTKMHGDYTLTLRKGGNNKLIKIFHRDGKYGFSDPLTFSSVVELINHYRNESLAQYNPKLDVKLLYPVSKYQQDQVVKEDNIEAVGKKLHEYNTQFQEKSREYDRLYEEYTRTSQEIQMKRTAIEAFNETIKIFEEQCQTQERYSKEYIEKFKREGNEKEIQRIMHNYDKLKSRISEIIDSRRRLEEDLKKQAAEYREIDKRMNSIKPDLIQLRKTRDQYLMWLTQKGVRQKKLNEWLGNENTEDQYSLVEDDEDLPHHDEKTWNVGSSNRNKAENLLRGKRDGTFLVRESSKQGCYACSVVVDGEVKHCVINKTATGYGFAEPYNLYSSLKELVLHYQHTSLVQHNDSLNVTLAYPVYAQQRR
Description: Inhibition of PI3Kα Efficacy assay The ADP-Glo™ kinase assay was used to assess the inhibition of PI3Kα with our compounds. The utilized proteins and assay reagents were obtained from the ADP-Glo™ Kinase Assay Kit (Promega). Initially, a 2 mM stock solution of the test compound (dissolved in DMSO) was serially diluted in five-fold concentrations using DMSO to obtain eight working solutions 1 (200′). […] Subsequently, 2 μL of 2.5×PI and ATP solution mixture were added to each well, mixed, and incubated at RT for 60 minutes. Then, 5 μL of ADP-Glo (containing 10 mM MgCl2) reagent was added to each well, mixed, and incubated at RT for 40 minutes. Finally, 10 μL of the Kinase Detection Reagent was added to each well, mixed, and incubated at RT for 40 minutes. […] Data were analyzed using GraphPad Prism with log(inhibitor) vs. response—Variable Slope(four parameters) fitting calculations for […]. (Note: The negative control refers to the group without inhibitor, and the blank control refers to the group without enzyme.) The data were presented in Tables 1 to 4.

[2] = H358 cells (G12C mutation), 3 days, Table 6, read-out: NCI-H358 (IC50)

COc1ncc(-c2ccc3ncnc(N4CC5CCC(C4)N5C(=O)/C=C/C(C)=O)c3c2)cc1NS(=O)(=O)c1ccc(F)cc1 [Example 149, 4-fluoro-N-(2-methoxy-5-(4-(8-((E)-4-oxopent-2-enoyl)-3,8-diazabicyclo[3.2.1]octan-3-yl)quinazolin-6-yl)pyridin-3-yl)benzenesulfonamide]
IC50 [1, 2]: 90.7 nM
IC50 (PI3Kα; Table 4): 3.3 nM

COc1ncc(-c2ccc3ncnc(N4CCN(C(=O)/C(F)=C/C(C)=O)CC4)c3c2)cc1NS(=O)(=O)c1ccc(F)cc1F [Example 77, (Z)-2,4-difluoro-N-(5-(4-(4-(2-fluoro-4-oxopent-2-enoyl)piperazin-1-yl)quinazolin-6-yl)-2-methoxypyridin-3-yl)benzenesulfonamide]
IC50 ([1]; read-out: NCI-H358 (IC50, nM)): 221 nM
IC50 (PI3Kα; Table 2): 3.9 nM

C=C(F)C(=O)N1CC2(CCN(c3ncnc4ccc(-c5cnc(OC)c(NS(=O)(=O)c6c(F)cc(F)cc6F)c5)cc34)CC2)C1 [Example 140, 2,4,6-trifluoro-N-(5-(4-(2-(2-fluoroacryloyl)-2,7-diazaspiro[3.5]nonan-7-yl)quinazoline-6-yl)-2-methoxypyridin-3-yl)benzenesulfonamide]
IC50 [1, 2]: 7.3 nM
IC50 (PI3Kα; Table 4): 0.43 nM

C=C(F)C(=O)N1C2CCC1CN(c1ncnc3ccc(-c4cnc(OC)c(NS(=O)(=O)c5ccc(F)cc5F)c4)cc13)C2 [Example 146, 2,4-difluoro-N-(5-(4-(8-(2-fluoroacryloyl)-3,8-diazabicyclo[3.2.1]octan-3-yl)quinazolin-6-yl)-2-methoxypyridin-3-yl)benzenesulfonamide]
IC50 [1, 2]: 82.1 nM
IC50 (PI3Kα; Table 4): 2.1 nM

COc1ncc(-c2ccc3ncnc(N4CC5CC(C4)N5C(=O)/C=C/C(C)=O)c3c2)cc1NS(=O)(=O)c1ccc(F)cc1F [Example 142, (E)-2,4-difluoro-N-(2-methoxy-5-(4-(6-(4-oxopent-2-enoyl)-3,6-diazabicyclo[3.1.1]heptan-3-yl)quinazolin-6-yl)pyridin-3-yl)benzenesulfonamide]
IC50 [1, 2]: 351 nM
IC50 (PI3Kα; Table 4): 0.57 nM

COc1ncc(-c2ccc3ncnc(N4CC5CN(C(=O)/C=C/C(C)=O)CC5C4)c3c2)cc1NS(=O)(=O)c1ccc(F)cc1F (stereo not shown) [Example 157, (E)-2,4-difluoro-N-(2-methoxy-5-(4-(5-(4-oxopent-2-enoyl)hexahydropyrrolo[3,4-c]pyrrol-2(1H)-yl)quinazolin-6-yl)pyridin-3-yl)benzenesulfonamide]
IC50 [1, 2]: 128 nM
IC50 (PI3Kα; Table 4): 1.3 nM

COc1ncc(-c2ccc3ncnc(N4CC5CCC(C4)N5C(=O)/C=C/C(C)=O)c3c2)cc1NS(=O)(=O)c1c(F)cncc1F [Example 162, 3,5-difluoro-N-(2-methoxy-5-(4-(8-((E)-4-oxopent-2-enoyl)-3,8-diazabicyclo[3.2.1]octan-3-yl)quinazolin-6-yl)pyridin-3-yl)pyridine-4-sulfonamide]
IC50 [1, 2]: 141 nM
IC50 (PI3Kα; Table 4): 2.4 nM

COc1ncc(-c2ccc3ncnc(N4CCN(C(=O)/C=C/CN(C)C)CC4)c3c2)cc1NS(=O)(=O)c1ccc(F)cc1F [Example 11, (E)-N-(5-(4-(4-(4-(dimethylamino)but-2-enoyl)piperazin-1-yl)quinazolin-6-yl)-2-methoxypyridin-3-yl)-2,4-difluorobenzenesulfonamide]
IC50 [1, 2]: 102 nM
IC50 (PI3Kα; Table 1): 0.64 nM

[2H]C([2H])([2H])n1cc(-c2ccc3ncnc(N4CCN(C(=O)/C=C/C(C)=O)CC4)c3c2)cc(NS(=O)(=O)c2ccc(F)cc2F)c1=O [Example 244, (E)-2,4-difluoro-N-(1-(methyl-d3)-2-oxo-5-(4-(4-(4-oxopent-2-enoyl)piperazin-1-yl)quinazolin-6-yl)-1,2-dihydropyridin-3-yl)benzenesulfonamide]
IC50 (PI3Kα; Table 4): 270 nM

C=CC(=O)N1C[C@H](C)N(c2ncnc3ccc(-c4cnc(OC)c(NS(=O)(=O)c5c(F)cccc5F)c4)cc23)C[C@H]1C [Example 53, N-(5-(4-((2S,5R)-4-acryloyl-2,5-dimethylpiperazin-1-yl)quinazolin-6-yl)-2-methoxypyridin-3-yl)-2,6-difluorobenzene-sulfonamide]
IC50 [1, 2]: 520 nM
IC50 (PI3Kα; Table 2): 4.4 nM

C=C(F)C(=O)N1CCN(c2ncnc3ccc(-c4cnc(OC)c(NS(=O)(=O)c5c(F)cc(F)cc5F)c4)cc23)CC1 [Example 98, 2,4,6-trifluoro-N-(5-(4-(4-(2-fluoroacryloyl)piperazin-1-yl)quinazolin-6-yl)-2-methoxypyridin-3-yl)benzenesulfonamide]
IC50 [1, 2]: 8.5 nM
IC50 (PI3Kα; Table 2): 9.8 nM

COc1ncc(-c2ccc3ncnc(N4CCN(C(=O)c5cccc(O)c5)CC4)c3c2)cc1NS(=O)(=O)c1ccc(F)cc1F [Example 69, 2,4-difluoro-N-(5-(4-(4-(3-hydroxy-benzoyl)piperazin-1-yl)quinazolin-6-yl)-2-methoxy-pyridin-3-yl) benzene-sulfonamide]
IC50 [1, 2]: 60.7 nM

COc1ncc(-c2ccc3ncnc(N4CC5(CN(C(=O)/C=C/C(C)=O)C5)C4)c3c2)cc1NS(=O)(=O)c1ccc(F)cc1F [Example 141]
IC50 [1, 2]: 80.6 nM
IC50 (PI3Kα; Table 4): 0.3 nM

COc1ncc(-c2ccc3ncnc(N4CCN(C(=O)/C=C/C(C)=O)C[C@@H]4C)c3c2)cc1NS(=O)(=O)c1c(F)cncc1F [Example 164, (S,E)-3,5-difluoro-N-(2-methoxy-5-(4-(2-methyl-4-(4-oxopent-2-enoyl)piperazin-1-yl)quinazolin-6-yl)pyridin-3-yl)pyridine-4-sulfonamide]
IC50 [1, 2]: 156 nM
IC50 (PI3Kα; Table 4): 2.8 nM

COc1ncc(-c2ccc3ncnc(N4CCC5(CN(C(=O)/C=C/C(C)=O)C5)C4)c3c2)cc1N(C)S(=O)(=O)c1ccc(F)cc1F [Example 81, (E)-2,4-difluoro-N-(2-methoxy-5-(4-(2-(4-oxopent-2-enoyl)-2,6-diazaspiro[3.4]octan-6-yl)quinazolin-6-yl)pyridin-3-yl)-N-methylbenzenesulfonamide]
IC50 [1, 2]: 1090 nM

CCCC(=O)/C=C/C(=O)N1CCN(c2ncnc3ccc(-c4cnc(OC)c(N(C)S(=O)(=O)c5ccc(F)cc5F)c4)cc23)CC1 [Example 80, (E)-2,4-difluoro-N-(2-methoxy-5-(4-(4-(4-oxohept-2-enoyl)piperazin-1-yl)quinazolin-6-yl)pyridin-3-yl)-N-methylbenzenesulfonamide]
IC50 [1, 2]: 784 nM

COc1ncc(-c2ccc3ncnc(N4CCN(C(=O)/C=C/C(C)=O)CC4)c3c2)cc1NS(=O)(=O)c1ccc(C(=O)O)cc1F [Example 209, (E)-3-fluoro-4-(N-(2-methoxy-5-(4-(4-(4-oxopent-2-enoyl)piperazin-1-yl)quinazolin-6-yl)pyridin-3-yl)sulfamoyl)benzoic acid]
IC50 (PI3Kα; Table 4): 0.57 nM

COc1c(F)cc(-c2ccc3ncnc(N4CCN(C(=O)/C=C/C(C)=O)CC4)c3c2)cc1NS(=O)(=O)c1ccc(F)cn1 [Example 121, (E)-5-fluoro-N-(3-fluoro-2-methoxy-5-(4-(4-(4-oxopent-2-enoyl)piperazin-1-yl)quinazolin-6-yl)phenyl)pyridine-2-sulfonamide]
IC50 (PI3Kα; Table 2): 111 nM

C=CC(=O)N1CCN(c2nc(OC[C@@H]3CCCN3C)nc3ccc(-c4cnc(OC)c(NS(=O)(=O)c5ccc(F)cc5F)c4)cc23)C[C@@H]1CC#N [Example 5, N-(5-(4-((S)-4-acryloyl-3-(cyanomethyl)piperazin-1-yl)-2-(((S)-1-methylpyrrolidin-2-yl)methoxy)quinazolin-6-yl)-2-methoxypyridin-3-yl)-2,4-difluorobenzenesulfonamide]
IC50 [1, 2]: 5390 nM

C=C(F)C(=O)N1C[C@H](C)N(c2ncnc3ccc(-c4cnc(OC)c(NS(=O)(=O)c5c(F)cccc5F)c4)cc23)C[C@H]1C [Example 52, 2,6-difluoro-N-(5-(4-((2S,5R)-4-(2-fluoroacryloyl)-2.5-dimethylpiperazin-1-yl)quinazolin-6-yl)-2-methoxypyridin-3-yl) benzenesulfonamide]
IC50 (PI3Kα; Table 2): 9.1 nM

C=CC(=O)N1CCN(c2nc(C)nc3ccc(-c4cnc(OC)c(NS(=O)(=O)c5ccc(F)cc5F)c4)cc23)CC1 [Example 29, N-(5-(4-(4-acryloylpiperazin-1-yl)-2-methylquinazolin-6-yl)-2-methoxypyridin-3-yl)-2,4-difluorobenzenesulfonamide]
IC50 (PI3Kα; Table 1): 41.3 nM

CC(=O)/C=C/C(=O)N1CCN(c2ncnc3ccc(-c4cnc(CO)c(NS(=O)(=O)c5ccc(F)cc5F)c4)cc23)CC1 [Example 183, (E)-2,4-difluoro-N-(2-(hydroxy-methyl)-5-(4-(4-(4-oxopent-2-enoyl)piperazin-1-yl)quinazolin-6-yl)pyridin-3-yl)benzene-sulfonamide]
IC50 (PI3Kα; Table 4): 5.3 nM
